In series [1] the test system is Abca4−/−Rdh8−/− mice. Put plainly: Bright light-induced retinal degeneration in Abca4−/−Rdh8−/− mice, OCT imaging of retinal structure. It is filed as in vivo, mouse. The settings on record: for Effect (effectiveness at preventing light-induced photoreceptor degeneration as measured by OCT imaging): ip, dose of each compound in column Dose of Table 1; for retinal / photoreceptor morphology by OCT imaging: pretreatment before light 10,000 lux 30 min, OCT 7 days after light exposure; for Percent of mice with: subeffective doses BRM 0.1, MTP 1, TAM 0.05, DOX 1 mg/kg bw, OCT 7 days.

The test system of series [2] is Abca4−/−Rdh8−/− mice. Put plainly: Bright light-induced retinal degeneration in Abca4−/−Rdh8−/− mice, SLO autofluorescence imaging. The series is classed as in vivo, mouse. The settings on record: pretreatment before light 10,000 lux 30 min; SLO 8-9 days after light exposure. The protocol: SLO (Heidelberg Engineering, Heidelberg, Germany) was carried out for whole fundus imaging of mouse retinas. Mice were anesthetized by intraperitoneal injection of anesthetic cocktail indicated above, which was followed by pupil dilation using 1% tropicamide prior to SLO imaging under autofluorescence mode.
SLO (Heidelberg Engineering) was carried out for in vivo whole fundus imaging of mouse retinas. […] Numbers of autofluorescent spots were counted and subjected to statistical analyses as described below.
SLO (Heidelberg Engineering) was carried out for whole fundus imaging of mouse retinas in vivo. Mice were anesthetized, and their pupils were dilated as described above. SLO images were then acquired in the autofluorescence mode.

Series [3] deals with Abca4−/−Rdh8−/− mice. Put plainly: Bright light-induced retinal degeneration in Abca4−/−Rdh8−/− mice, retinal histology and immunohistochemistry. The series is classed as in vivo, mouse. The conditions noted are these: pretreatment before light 10,000 lux 30 min; 7-10 days after light exposure. As for the experimental part: Retinal histology and immunohistochemistry (IHC) was performed as previously described. Briefly, eye cups free of cornea, lens and vitreous body were fixed in 2% glutaraldehyde/4% paraformaldehyde and processed for Epon embedding. Sections 1 am thick were cut and stained with toluidine blue for histological examination under a light microscope. IHC analysis was performed on 12 am thick cryosections prepared from 4% paraformaldehyde-fixed eye cups. Collected cryosections were subjected to examination for rhodopsin, PNA and DAPI expression.
Retinal immunohistochemistry (IHC) was carried out as previously described. Briefly, eyes were enucleated and eye cups were made to eliminate cornea, lens and vitreous body and fixed in 4% paraformaldehyde and processed for cryosectioning. 12 am thick cryosections were collected cryosections and subjected to examination for rhodopsin, peanut agglutinin lectin (PNA) and DAPI expression.
Retinal immunohistochemistry (IHC) was performed as previously described. Briefly, eyes were enucleated and, after removal of the cornea, lens and vitreous body, eye cups were fixed in 4% paraformaldehyde and processed for cryosectioning. Twelve μm thick cryosections were cut, collected and examined for rhodopsin expression, peanut agglutinin lectin (PNA) for cone sheath and nuclear DAPI staining. […]

For series [4], the system named is Abca4−/−Rdh8−/− mice. Put plainly: Bright light-induced retinal degeneration in Abca4−/−Rdh8−/− mice, ERG retinal function. The settings on record: pretreatment before light 10,000 lux 30 min, ERG 7 days to 2 weeks after.
Series [5] has as its system ROS generation in photoreceptors of Abca4−/−Rdh8−/− mice. Nature of the series: In vivo detection of ROS (DHE probe) in retinas of light-exposed Abca4−/−Rdh8−/− mice. Also on record: species or system mouse. The settings on record: Example 1; pretreatment before light 10,000 lux 30 min; retinas 3 h after illumination.
Description: The ROS probe, DHE, at a dose of 20 mg/kg body weight was administered to Abca4^−/−Rdh8^−/− mice via intraperitoneal injection 30 min prior to light exposure. Eye cups obtained after removing the cornea, lens and vitreous body from enucleated eye globes 3 h post light illumination were fixed in 4% paraformaldehyde. Cryosections were prepared from fixed eye cups and cut at 12 am thickness for microscopic assessment of ROS signal fluorescence in the retina.
The ROS probe, DHE, at a dose of 20 mg/kg body weight in 25 μl of DMSO, was administered to Abca4^−/−Rdh8^−/− mice via intraperitoneal injection 1 h prior to light exposure. Eye cups obtained after removing the cornea, lens, and vitreous body from enucleated eye globes 3 h post light illumination were fixed in 4% paraformaldehyde. Cryosections were prepared from fixed eye cups and cut at 12-am thickness for microscopic assessment of ROS fluorescence in the retina with ImageJ software (National Institutes of Health).
Series [6] has as its system retinal transcriptome of Abca4−/−Rdh8−/− mice. Nature of the series: RNA-seq retinal transcriptome of pretreated, light-exposed Abca4−/−Rdh8−/− mice (differential expression, Pearson, GSEA). The series is classed as in vivo, mouse.
Where [7] appears, read: GSEA, vehicle-treated light-exposed retinas against drug-treated.

Consider 20 compounds from patent US10426773B2, “Systems pharmacology for treating ocular disorders” (Case Western Reserve Univeristy, priority 2011, dated 2019).

“Also recorded” adds a separate entry of the source. Where a name gives a salt, the structure may show the parent alone.

Take Eltoprazine: the “Effect (effectiveness at preventing light-induced photoreceptor degeneration as measured by OCT imaging)” value in series [1] is reported as 20%.
For the compound `Cl.N=C(N)NC(=O)Cc1c(Cl)cccc1Cl` [Guanfacine], in series [2], the “retinal autofluorescence spots by SLO imaging” value (from here on “retinal autofluorescence spots”) is “markedly less autofluorescence spots”. Further, in series [1], the “retinal / photoreceptor morphology by OCT imaging” value (“retinal / photoreceptor morphology” for short) is recorded as “significantly prevented”. For the same compound, the “retinal histology / immunohistochemistry (rhodopsin, PNA, DAPI; ONL)” value (“retinal histology / immunohistochemistry” for short) in series [3] is recorded as “substantially preserved photoreceptor morphology”.
On to `Cc1nc2sccn2c(=O)c1CCN1CCC(=C(c2ccc(F)cc2)c2ccc(F)cc2)CC1` [ritanserin, Ritanserin], for which, in series [1], the “retinal / photoreceptor morphology” value is “substantially protected photoreceptors from light-induced degeneration”. The “retinal function by ERG (a-wave and b-wave amplitudes)” value (from here on “retinal function by ERG”) in series [4] was “protective effect”.
Turning to `COc1ccc2c(c1)CC[C@@H]1[C@@H]2CC[C@]2(C)[C@@H](NCCCCCCN3C(=O)C=CC3=O)CC[C@@H]12` [U-73122, 1-(6-((17β-3-methoxyestra-1,3,5(10)-trien-17-yl)amino)hexyl)-1H-pyrrole-2,5-dione], in series [3], the “retinal histology / immunohistochemistry” value was “markedly less light-induced photoreceptor damage”. Besides, the “retinal function by ERG” value in series [4] was “protective effect”.
As to `CC(C)n1cc2c3c(cccc31)[C@H]1C[C@@H](C(=O)N[C@H]3CCC[C@H]3O)CN(C)[C@@H]1C2` [LY 215840, (8β)-N-[(1S,2R)-2-Hydroxycyclopentyl]-1-isopropyl-6-methylergoline-8-carboxamide], in series [2], the “retinal autofluorescence spots” value is “significantly reduced formation of autofluorescence spots”. Moreover, the “retinal / photoreceptor morphology” value in series [1] was “profound preservation of photoreceptor morphology”. For the same compound, in series [3], the “retinal histology / immunohistochemistry” value is “substantially preserved photoreceptor morphology”. The “retinal function by ERG” value in series [4] (listed as LY) is “substantial preservation of the scotopic ERG response; also recorded: substantial preservation of this response”.
`C[N+]1(C)CCC(OC(=O)C(c2ccccc2)c2ccccc2)CC1.[I-]` [4-DAMP, 1,1-dimethyl-4-diphenylacetoxypiperidinium iodide]: in series [3], the “retinal histology / immunohistochemistry” value is “preserve retinal morphology”. Moreover, the “retinal function by ERG” value in series [4] is “protective effect”.
As for `CNc1cc(NS(=O)(=O)c2ccc(N)cc2)nc(NC)n1` [Ro 04-6790, 4-Amino-N-[2,6-bis(methylamino)-4-pyrimidinyl]benzenesulfonamidev], the “retinal autofluorescence spots” value in series [2] was “significantly reduced formation of autofluorescence spots”. The “retinal / photoreceptor morphology” value in series [1] is given as “profound preservation of photoreceptor morphology”. Besides, the “retinal histology / immunohistochemistry” value in series [3] is recorded as “substantially preserved photoreceptor morphology”. For the same compound, the “retinal function by ERG” value in series [4] (listed as RO) was “substantial preservation of the scotopic ERG response; also recorded: substantial preservation of this response”.
With `COC(=O)[C@@H]1[C@H]2C[C@H]3c4[nH]c5ccccc5c4CCN3C[C@@H]2CC[C@@H]1O.Cl` [Yohimbine], the “Effect (effectiveness at preventing light-induced photoreceptor degeneration as measured by OCT imaging)” value in series [1] is reported as “toxic”.
For `COc1cc2nc(N3CCN(C(=O)c4ccco4)CC3)nc(N)c2cc1OC.Cl` [Prazosin], the “retinal autofluorescence spots” value in series [2] is given as “significantly protected retinas from developing light-induced damage”. Besides, the “retinal / photoreceptor morphology” value in series [1] is listed as “substantial protection on photoreceptor morphology”. In addition, in series [3], the “retinal histology / immunohistochemistry” value was “substantially preserved photoreceptor morphology”.
Take `CC1=C(/C=C/C(C)=C/C=C/C(C)=C/CN)C(C)(C)CCC1` [Ret-NH2, all-trans-retinylamine]: the “ROS production in the ONL / photoreceptors (DHE signal)” value in series [5] is on record as “significantly decreased ROS production”.
Regarding `CC(Oc1c(Cl)cccc1Cl)C1=NCCN1.Cl` (stereo not shown) [Lofexidine], the “retinal autofluorescence spots” value in series [2] is listed as “markedly less autofluorescence spots”. Also, the “retinal / photoreceptor morphology” value in series [1] was “significantly prevented”. Also, in series [4] (listed as LOF), the “retinal function by ERG” value is recorded as “substantial preservation of the scotopic ERG response; also recorded: substantial preservation of this response”.
As to `CC1CCN(CC[C@H]2CCCN2S(=O)(=O)c2cccc(O)c2)CC1.Cl` [SB 269970, 3-({(2R)-2-[2-(4-Methyl-1-piperidinyl)ethyl]-1-pyrrolidinyl}sulfonyl)phenol hydrochloride (1:1)], the “retinal autofluorescence spots” value in series [2] is recorded as “significantly reduced formation of autofluorescence spots”. Besides, in series [1], the “retinal / photoreceptor morphology” value was “profound preservation of photoreceptor morphology”.
Regarding `CN1CCC(c2cn(C)c3ccc(OS(=O)(=O)c4c(F)cccc4F)cc23)CC1` [SGS 518 oxalate], the “retinal autofluorescence spots” value in series [2] is listed as “significantly reduced formation of autofluorescence spots”. Moreover, the “retinal / photoreceptor morphology” value in series [1] is “profound preservation of photoreceptor morphology”. Further, the “retinal histology / immunohistochemistry” value in series [3] is given as “substantially preserved photoreceptor morphology”.
For `c1ccc([I+]c2ccccc2)cc1` [DPI, diphenyliodonium], the “retinal / photoreceptor morphology” value in series [1] was “well-preserved retinal morphology”. Further, the “retinal histology / immunohistochemistry” value in series [3] was “nearly intact retinal morphology”. In addition, the “retinal function by ERG” value in series [4] is reported as “protective effect”.
`CCCN(CCC)C1CCc2cccc(O)c2C1` (stereo not shown) [8-OH-DPAT, 8-hydroxy-N,N-dipropyl-2-aminotetralin]: in series [1], the “retinal / photoreceptor morphology” value is “protective effect; also recorded: dose-dependent”.
For the compound `O=C(c1ccc(F)cc1)C1CCN(CCn2c(=O)[nH]c3ccccc3c2=O)CC1` [ketanserin], in series [3], the “retinal histology / immunohistochemistry” value is on record as “substantial protective effect”. In addition, in series [4], the “retinal function by ERG” value was “protective effect”.
Turning to `COc1cc(N)c(Cl)cc1C(=O)OCCCN1CCCCC1.Cl` [RS 23579-190], the “retinal autofluorescence spots” value in series [2] was “significantly reduced formation of autofluorescence spots”. The “retinal / photoreceptor morphology” value in series [1] is “profound preservation of photoreceptor morphology”. Further, in series [3], the “retinal histology / immunohistochemistry” value is “substantially preserved photoreceptor morphology”. Further, the “retinal function by ERG” value in series [4] (listed as RS) is reported as “substantial preservation of the scotopic ERG response; also recorded: substantial preservation of this response”.
`c1ccc2c(c1)OCC(C1=NCCN1)O2` (stereo not shown) [IDA, idazoxan]: the “effect on the protective action of GUB” value in series [1] (IDA 2.5 and 5 mg/kg BW first, then GUB 2 mg/kg BW, FIG. 25D) is reported as “totally abolished the protective action”.
Take `CC(C)C[C@H]1C(=O)N2CCC[C@H]2[C@]2(O)O[C@](NC(=O)[C@@H]3C=C4c5cccc6[nH]c(Br)c(c56)C[C@H]4N(C)C3)(C(C)C)C(=O)N12` [BRM, 2-Bromo-α-ergocryptine methanesulfonate salt]: in series [1] (Table 14 (complete protection, ONL ≥50 μm)), the “Percent of mice with” value is 16.7% of mice. Besides, the “Percent of mice with” value in series [1] (Table 14 (no protection, ONL ≤20 μm)) is reported as 66.7% of mice. Besides, the “light-exposed mice with complete retinal protection” value in series [1] (lower doses BRM 0.1, MTP 1, TAM 0.05 mg/kg bw, alone or all three combined) came to 17%. In series [6] (setting [7]), the “NES, CHEMOKINE SIGNALING gene set” value is reported as 1.67; the “NES, CYTOKINE- RECEPTOR INTERACTIO gene set” value is 2.31; the “NES, P53 gene set” value turned out to be 2.06; the “NES, TOLL-LIKE SIGNALING gene set” value is recorded as 2.20. Besides, the “NES, APOPTOSIS gene set” value in series [6] (GSEA, vehicle-treated light-exposed retinas against drug-treated, P in brackets not reported here) worked out at 1.75. The “number of light-up-regulated gene sets significantly down-regulated (GSEA)” value in series [6] (of 44 gene sets up-regulated by light, mono doses BRM 1, MTP 10, TAM 2.5, DOX 10 mg/kg bw) is 29 gene sets.
Regarding `CC(C)C[C@H](CN)CC(=O)O` (single isomer, unassigned) [R and S enantiomer of pregabalin, pregabalin], the “ROS production in the ONL / photoreceptors (DHE signal)” value in series [5] is listed as “also consistently observed”.
